Measurements reported in paper doi:10.1101/2024.08.13.607785v1 (biorxiv, 2024).

Key:
Design in all cases: species or system mixed lysate of K562, MV4-11, THP-1, NCI-H1155
[1] = target: T1, Dual specificity mitogen-activated protein kinase kinase 3 ; MAP2K3 ; P46734 (Homo sapiens, UniProt P46734); settings: DDA-MS residual binding; binder
T1 sequence (P46734 1-347): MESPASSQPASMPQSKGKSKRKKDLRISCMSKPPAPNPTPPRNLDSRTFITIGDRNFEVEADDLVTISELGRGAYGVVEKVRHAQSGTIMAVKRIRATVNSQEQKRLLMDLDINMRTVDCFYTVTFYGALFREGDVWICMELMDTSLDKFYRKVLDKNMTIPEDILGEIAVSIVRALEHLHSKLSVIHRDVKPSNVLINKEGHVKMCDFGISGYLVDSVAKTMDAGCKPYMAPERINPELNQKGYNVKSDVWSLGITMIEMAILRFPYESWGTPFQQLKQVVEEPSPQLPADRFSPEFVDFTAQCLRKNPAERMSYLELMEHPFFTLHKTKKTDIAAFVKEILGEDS

[2] = target: Epithelial discoidin domain-containing receptor 1 ; DDR1 ; Q08345 (Homo sapiens, UniProt Q08345); settings: binder
Epithelial discoidin domain-containing receptor 1 ; DDR1 ; Q08345, sequence (Q08345 whole entry, the tested form may be a part): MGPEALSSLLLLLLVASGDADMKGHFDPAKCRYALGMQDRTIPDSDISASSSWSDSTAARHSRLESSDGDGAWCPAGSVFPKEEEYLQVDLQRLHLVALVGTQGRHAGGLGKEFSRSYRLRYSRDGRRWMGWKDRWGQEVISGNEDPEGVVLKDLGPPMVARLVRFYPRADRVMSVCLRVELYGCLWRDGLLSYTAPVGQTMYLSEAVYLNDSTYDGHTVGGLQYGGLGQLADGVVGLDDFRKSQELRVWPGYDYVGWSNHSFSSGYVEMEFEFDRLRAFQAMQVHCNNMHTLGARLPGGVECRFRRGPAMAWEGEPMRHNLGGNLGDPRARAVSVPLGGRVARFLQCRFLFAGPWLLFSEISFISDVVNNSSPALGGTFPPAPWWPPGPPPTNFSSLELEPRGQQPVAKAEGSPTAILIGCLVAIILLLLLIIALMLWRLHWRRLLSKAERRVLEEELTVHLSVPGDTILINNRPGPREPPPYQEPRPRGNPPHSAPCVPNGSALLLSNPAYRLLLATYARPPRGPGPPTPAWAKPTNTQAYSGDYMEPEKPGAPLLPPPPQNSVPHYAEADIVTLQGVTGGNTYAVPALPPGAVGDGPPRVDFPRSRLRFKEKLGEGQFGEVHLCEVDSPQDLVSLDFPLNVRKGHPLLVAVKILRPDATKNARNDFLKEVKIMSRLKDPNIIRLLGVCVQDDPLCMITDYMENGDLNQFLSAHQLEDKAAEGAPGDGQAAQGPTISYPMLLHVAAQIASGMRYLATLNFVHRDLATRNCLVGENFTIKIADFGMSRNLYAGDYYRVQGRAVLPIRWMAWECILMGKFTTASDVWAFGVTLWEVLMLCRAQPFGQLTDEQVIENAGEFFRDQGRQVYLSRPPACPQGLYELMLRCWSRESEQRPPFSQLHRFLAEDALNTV

[3] = target: LIM domain kinase 1 ; LIMK1 ; P53667 (Homo sapiens, UniProt P53667); settings: DDA-MS residual binding; binder
LIM domain kinase 1 ; LIMK1 ; P53667, sequence (P53667 whole entry, the tested form may be a part): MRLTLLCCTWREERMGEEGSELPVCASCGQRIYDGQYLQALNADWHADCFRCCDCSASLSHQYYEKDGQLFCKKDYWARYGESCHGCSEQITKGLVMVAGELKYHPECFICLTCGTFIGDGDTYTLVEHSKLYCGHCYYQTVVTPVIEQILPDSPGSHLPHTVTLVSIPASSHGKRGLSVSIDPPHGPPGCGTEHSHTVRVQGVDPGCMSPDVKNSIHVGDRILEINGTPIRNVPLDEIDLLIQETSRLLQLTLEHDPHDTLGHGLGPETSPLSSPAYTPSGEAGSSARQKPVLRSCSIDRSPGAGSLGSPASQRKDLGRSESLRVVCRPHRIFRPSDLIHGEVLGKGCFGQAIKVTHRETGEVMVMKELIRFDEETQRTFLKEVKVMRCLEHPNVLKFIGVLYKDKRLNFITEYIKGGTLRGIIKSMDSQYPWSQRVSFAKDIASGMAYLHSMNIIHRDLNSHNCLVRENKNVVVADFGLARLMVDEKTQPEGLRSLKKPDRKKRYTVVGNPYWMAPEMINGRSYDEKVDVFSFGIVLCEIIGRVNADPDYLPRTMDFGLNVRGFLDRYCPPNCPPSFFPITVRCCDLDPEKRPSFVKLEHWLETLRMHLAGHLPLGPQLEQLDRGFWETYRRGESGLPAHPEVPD

[4] = target: Mitogen-activated protein kinase kinase kinase 4 ; MAP3K4 ; Q9Y6R4 (Homo sapiens, UniProt Q9Y6R4); settings: binder
Mitogen-activated protein kinase kinase kinase 4 ; MAP3K4 ; Q9Y6R4, sequence (Q9Y6R4 whole entry): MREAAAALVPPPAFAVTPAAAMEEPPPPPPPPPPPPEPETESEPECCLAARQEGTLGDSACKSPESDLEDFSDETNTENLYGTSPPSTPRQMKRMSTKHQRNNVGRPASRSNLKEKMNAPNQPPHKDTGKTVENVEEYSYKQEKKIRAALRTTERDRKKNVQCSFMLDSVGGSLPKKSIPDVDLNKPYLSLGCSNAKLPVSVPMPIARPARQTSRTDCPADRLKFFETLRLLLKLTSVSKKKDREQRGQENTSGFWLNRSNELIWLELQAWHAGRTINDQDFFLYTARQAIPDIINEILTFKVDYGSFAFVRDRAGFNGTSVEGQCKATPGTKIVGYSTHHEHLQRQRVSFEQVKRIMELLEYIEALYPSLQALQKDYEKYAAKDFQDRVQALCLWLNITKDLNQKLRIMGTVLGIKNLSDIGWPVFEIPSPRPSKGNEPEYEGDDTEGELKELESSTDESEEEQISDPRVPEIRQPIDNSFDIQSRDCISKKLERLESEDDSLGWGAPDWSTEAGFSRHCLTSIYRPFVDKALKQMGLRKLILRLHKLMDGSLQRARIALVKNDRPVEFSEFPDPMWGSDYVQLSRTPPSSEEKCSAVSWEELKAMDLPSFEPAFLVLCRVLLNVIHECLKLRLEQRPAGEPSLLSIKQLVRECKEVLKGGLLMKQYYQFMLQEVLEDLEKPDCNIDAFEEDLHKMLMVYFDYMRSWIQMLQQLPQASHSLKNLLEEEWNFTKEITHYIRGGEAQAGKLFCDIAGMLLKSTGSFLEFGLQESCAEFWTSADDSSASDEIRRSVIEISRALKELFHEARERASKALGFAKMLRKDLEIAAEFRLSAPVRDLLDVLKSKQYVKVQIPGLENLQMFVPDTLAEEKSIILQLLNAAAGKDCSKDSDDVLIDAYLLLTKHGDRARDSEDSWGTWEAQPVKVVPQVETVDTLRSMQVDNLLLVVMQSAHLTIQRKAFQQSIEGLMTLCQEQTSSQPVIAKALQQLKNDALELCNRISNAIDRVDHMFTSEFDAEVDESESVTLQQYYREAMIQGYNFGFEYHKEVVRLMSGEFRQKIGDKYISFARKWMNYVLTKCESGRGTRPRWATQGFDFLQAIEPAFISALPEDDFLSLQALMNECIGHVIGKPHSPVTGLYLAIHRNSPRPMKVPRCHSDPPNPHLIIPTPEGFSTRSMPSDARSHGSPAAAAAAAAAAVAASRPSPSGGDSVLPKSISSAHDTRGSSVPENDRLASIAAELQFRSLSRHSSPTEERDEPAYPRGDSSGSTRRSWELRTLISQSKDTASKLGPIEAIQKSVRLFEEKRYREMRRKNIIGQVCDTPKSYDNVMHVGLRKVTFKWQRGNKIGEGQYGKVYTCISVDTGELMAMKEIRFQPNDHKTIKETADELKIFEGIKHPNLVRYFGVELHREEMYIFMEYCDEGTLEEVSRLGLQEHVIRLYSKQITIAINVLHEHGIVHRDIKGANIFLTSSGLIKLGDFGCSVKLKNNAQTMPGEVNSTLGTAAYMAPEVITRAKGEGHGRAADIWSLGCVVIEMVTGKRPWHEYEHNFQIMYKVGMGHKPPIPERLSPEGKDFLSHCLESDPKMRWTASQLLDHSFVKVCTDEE

[5] = target: Mitogen-activated protein kinase kinase kinase kinase 5 ; MAP4K5 ; Q9Y4K4 (Homo sapiens, UniProt Q9Y4K4); settings: DDA-MS residual binding; binder
[6] = target: Serine/threonine-protein kinase SIK2 ; SIK2 ; Q9H0K1 (Homo sapiens, UniProt Q9H0K1); settings: DDA-MS residual binding; binder
[7] = target: Tyrosine-protein kinase CSK ; CSK ; P41240 (Homo sapiens, UniProt P41240); settings: binder
Tyrosine-protein kinase CSK ; CSK ; P41240, sequence (P41240 whole entry): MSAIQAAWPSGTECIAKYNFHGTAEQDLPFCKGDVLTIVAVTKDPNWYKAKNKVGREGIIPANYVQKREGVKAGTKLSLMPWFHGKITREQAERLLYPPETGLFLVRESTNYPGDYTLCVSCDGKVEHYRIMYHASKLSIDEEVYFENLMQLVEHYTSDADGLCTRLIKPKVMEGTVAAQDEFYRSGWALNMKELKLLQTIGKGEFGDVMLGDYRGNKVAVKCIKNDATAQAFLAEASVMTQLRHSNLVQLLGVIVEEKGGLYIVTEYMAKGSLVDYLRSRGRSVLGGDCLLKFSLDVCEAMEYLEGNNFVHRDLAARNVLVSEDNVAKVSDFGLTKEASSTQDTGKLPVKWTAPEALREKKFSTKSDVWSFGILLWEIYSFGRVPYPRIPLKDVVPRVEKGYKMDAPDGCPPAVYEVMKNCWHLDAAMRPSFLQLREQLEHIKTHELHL

[8] = target: Tyrosine-protein kinase FRK ; FRK ; P42685 (Homo sapiens, UniProt P42685); settings: DDA-MS residual binding; binder
Tyrosine-protein kinase FRK ; FRK ; P42685, sequence (P42685 whole entry): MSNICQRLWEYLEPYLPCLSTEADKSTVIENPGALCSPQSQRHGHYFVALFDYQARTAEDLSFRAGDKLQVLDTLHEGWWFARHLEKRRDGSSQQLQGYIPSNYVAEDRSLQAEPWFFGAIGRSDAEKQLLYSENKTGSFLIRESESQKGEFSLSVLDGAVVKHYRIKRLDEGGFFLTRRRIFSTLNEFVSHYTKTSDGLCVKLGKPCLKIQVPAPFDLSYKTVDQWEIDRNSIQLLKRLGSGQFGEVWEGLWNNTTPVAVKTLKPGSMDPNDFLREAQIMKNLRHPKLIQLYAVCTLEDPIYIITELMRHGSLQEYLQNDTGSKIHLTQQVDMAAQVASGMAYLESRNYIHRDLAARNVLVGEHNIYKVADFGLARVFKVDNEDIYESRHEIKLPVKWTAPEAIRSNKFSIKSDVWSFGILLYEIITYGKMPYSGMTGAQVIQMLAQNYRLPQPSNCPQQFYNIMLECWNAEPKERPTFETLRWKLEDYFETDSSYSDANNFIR

[9] = target: Tyrosine-protein kinase Fgr ; FGR ; P09769 (Homo sapiens, UniProt P09769); settings: binder
Tyrosine-protein kinase Fgr ; FGR ; P09769, sequence (P09769 whole entry): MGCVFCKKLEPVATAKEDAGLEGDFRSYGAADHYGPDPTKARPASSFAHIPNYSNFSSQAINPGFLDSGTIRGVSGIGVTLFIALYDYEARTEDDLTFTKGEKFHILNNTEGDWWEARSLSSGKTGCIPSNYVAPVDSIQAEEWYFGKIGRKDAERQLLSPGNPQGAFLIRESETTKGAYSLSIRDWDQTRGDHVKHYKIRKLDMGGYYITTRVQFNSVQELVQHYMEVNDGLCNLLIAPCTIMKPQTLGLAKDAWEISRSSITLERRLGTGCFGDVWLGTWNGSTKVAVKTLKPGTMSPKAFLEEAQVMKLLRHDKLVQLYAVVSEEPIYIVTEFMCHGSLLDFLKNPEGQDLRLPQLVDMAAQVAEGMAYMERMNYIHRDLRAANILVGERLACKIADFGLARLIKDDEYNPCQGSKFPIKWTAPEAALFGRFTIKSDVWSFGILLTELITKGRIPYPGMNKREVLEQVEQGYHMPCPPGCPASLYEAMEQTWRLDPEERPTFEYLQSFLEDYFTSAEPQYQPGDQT

[10] = target: T2, Tyrosine-protein kinase Tec ; TEC ; P42680 (Homo sapiens, UniProt P42680); settings: binder
T2 sequence (P42680 1-631): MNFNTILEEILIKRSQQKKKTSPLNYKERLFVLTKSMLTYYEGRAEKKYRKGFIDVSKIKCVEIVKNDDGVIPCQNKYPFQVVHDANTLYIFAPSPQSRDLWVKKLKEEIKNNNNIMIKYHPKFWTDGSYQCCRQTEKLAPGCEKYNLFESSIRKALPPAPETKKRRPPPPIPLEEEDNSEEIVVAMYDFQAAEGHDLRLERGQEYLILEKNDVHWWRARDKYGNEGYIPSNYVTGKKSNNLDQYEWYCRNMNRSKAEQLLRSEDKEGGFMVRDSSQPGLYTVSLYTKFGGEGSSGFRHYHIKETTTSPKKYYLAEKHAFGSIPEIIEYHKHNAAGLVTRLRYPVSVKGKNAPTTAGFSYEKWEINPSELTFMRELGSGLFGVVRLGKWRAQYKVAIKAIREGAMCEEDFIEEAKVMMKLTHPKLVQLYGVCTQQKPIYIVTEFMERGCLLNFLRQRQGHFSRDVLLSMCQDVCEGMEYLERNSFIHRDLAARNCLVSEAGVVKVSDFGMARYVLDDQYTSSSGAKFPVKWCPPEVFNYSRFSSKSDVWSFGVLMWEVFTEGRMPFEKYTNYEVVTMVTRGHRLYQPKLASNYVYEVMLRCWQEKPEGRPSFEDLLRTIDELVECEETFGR

SMILES: Cc1nc(Nc2ncc(C(=O)Nc3c(C)cccc3Cl)s2)cc(N2CCN(CCO)CC2)n1 [dasatinib]
- DDA-MS / % Intensity (30 µM/DMSO) [1]: 35.23%
- DDA-MS / % Intensity (30 µM/DMSO) [2]: 4.526%
- DDA-MS / % Intensity (30 µM/DMSO) [3]: 23.79%
- DDA-MS / % Intensity (30 µM/DMSO) [4]: 9.795%
- DDA-MS / % Intensity (30 µM/DMSO) [5]: 24.77%
- DDA-MS / % Intensity (30 µM/DMSO) [6]: 1.826%
- DDA-MS / % Intensity (30 µM/DMSO) [7]: 0.3688%
- DDA-MS / % Intensity (30 µM/DMSO) [8]: 5.626%
- DDA-MS / % Intensity (30 µM/DMSO) [9]: 3.884%
- DDA-MS / % Intensity (30 µM/DMSO) [10]: 2.183%
